According to paper PMC11563871, “The human ATAD5 has evolved unique structural elements to function exclusively as a PCNA unloader” (Nature Structural & Molecular Biology, 2024):

Experiments:
ATAD5-RFC = tested on: T1, ATAD5-RFC; assay: malachite green phosphate ATPase assay; type: biochemical, Homo sapiens; conditions: 1 mM ATP, 0.25 μM ATAD5-RFC, 2 mM MgCl2, pH 7.6, room temperature; alone or with PCNA and/or DNA
T1 construct: N-terminally truncated ATAD5 (812-end of 1844), N-terminal 3xFLAG and C-terminal 6xHis, heteropentamer with RFC2-RFC5, insect cells (Sf9/Hi5)
T1 sequence (Q96QE3 812-1844): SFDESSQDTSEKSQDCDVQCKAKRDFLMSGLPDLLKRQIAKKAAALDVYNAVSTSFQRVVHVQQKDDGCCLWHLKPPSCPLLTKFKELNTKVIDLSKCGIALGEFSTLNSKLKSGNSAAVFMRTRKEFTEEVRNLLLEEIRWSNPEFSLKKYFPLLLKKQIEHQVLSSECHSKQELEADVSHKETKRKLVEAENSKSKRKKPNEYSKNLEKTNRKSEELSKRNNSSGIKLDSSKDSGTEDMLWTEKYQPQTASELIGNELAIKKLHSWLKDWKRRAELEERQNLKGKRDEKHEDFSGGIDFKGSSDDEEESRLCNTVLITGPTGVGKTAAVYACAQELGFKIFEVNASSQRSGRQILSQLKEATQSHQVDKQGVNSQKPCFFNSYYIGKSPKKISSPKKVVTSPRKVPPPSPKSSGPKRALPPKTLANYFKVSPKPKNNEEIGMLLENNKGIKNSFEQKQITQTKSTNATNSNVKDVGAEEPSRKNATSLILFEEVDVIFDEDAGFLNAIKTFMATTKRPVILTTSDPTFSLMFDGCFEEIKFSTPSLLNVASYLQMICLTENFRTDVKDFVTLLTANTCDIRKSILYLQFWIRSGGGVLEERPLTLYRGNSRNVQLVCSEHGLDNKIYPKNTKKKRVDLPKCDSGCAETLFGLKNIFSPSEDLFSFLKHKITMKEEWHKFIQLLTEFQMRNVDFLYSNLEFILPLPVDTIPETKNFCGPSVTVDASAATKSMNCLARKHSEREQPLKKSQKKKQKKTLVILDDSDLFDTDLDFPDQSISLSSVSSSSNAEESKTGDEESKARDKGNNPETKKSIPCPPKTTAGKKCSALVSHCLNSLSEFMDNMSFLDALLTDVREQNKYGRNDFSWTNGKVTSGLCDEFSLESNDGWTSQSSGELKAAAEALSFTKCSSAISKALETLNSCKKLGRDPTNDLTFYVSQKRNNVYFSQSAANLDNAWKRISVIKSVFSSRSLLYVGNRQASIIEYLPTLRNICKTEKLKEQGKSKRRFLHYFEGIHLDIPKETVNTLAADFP
T1 sequence (P35250 whole entry, further chain, the tested form may be a part): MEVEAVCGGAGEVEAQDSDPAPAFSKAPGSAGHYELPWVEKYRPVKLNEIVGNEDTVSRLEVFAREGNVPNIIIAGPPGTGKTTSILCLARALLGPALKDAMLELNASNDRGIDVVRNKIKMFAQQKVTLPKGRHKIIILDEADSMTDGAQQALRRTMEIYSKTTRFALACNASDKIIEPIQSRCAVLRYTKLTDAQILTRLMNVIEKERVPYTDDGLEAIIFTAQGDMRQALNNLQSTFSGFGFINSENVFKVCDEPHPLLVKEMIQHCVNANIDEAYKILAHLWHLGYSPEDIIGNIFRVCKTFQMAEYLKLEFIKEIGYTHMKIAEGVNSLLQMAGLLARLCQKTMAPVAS
T1 sequence (P40938 whole entry, further chain, the tested form may be a part): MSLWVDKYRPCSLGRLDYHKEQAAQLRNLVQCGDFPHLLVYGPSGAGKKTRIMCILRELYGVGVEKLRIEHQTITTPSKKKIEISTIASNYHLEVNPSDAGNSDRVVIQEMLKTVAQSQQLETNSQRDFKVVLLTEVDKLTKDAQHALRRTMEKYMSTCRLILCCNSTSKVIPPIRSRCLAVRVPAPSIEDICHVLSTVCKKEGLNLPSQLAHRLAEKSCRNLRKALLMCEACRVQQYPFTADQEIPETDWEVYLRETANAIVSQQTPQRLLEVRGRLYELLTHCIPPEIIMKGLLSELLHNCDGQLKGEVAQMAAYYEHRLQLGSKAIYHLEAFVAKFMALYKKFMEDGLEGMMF
T1 sequence (P35249 whole entry, further chain, the tested form may be a part): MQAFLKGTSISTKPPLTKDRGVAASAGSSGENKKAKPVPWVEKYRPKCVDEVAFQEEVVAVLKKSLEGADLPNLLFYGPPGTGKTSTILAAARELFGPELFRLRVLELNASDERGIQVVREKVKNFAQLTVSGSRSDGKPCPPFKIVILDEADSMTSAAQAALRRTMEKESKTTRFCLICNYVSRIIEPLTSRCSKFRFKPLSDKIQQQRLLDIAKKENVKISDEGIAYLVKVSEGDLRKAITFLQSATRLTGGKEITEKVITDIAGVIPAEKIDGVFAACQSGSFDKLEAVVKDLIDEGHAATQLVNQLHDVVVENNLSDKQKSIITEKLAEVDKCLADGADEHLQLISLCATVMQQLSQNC
T1 sequence (P40937 whole entry, further chain, the tested form may be a part): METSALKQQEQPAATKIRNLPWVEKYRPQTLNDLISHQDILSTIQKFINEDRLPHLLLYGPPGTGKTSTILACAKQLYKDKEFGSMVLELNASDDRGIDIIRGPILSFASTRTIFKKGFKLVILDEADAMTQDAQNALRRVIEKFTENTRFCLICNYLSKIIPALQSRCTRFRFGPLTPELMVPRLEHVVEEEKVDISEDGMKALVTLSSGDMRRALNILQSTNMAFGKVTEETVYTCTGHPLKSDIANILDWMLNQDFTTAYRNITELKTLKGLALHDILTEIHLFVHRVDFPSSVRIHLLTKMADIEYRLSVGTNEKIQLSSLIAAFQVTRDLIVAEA

[1] = tested on: T2, human ATAD5-RFC–PCNA complex; assay: cryo-EM structure; type: binding; conditions: 0.5 mM ATPγS, Mg2+; bound at ATAD5, RFC2, RFC5 and (states 1 and 2) RFC4
T2 construct: N-terminally truncated ATAD5 (812-end of 1844), N-terminal 3xFLAG and C-terminal 6xHis, with RFC2-RFC5, insect cells (Sf9/Hi5); PCNA homotrimer from E. coli, His tag cut by thrombin; with Proliferating cell nuclear antigen
T2 sequence (Q96QE3 812-1844): as the sequence (Q96QE3 812-1844) above
T2 sequence (P35250 whole entry, further chain, the tested form may be a part): as the sequence (P35250 whole entry, further chain, the tested form may be a part) above
T2 sequence (P40938 whole entry, further chain, the tested form may be a part): as the sequence (P40938 whole entry, further chain, the tested form may be a part) above
T2 sequence (P35249 whole entry, further chain, the tested form may be a part): as the sequence (P35249 whole entry, further chain, the tested form may be a part) above
T2 sequence (P40937 whole entry, further chain, the tested form may be a part): as the sequence (P40937 whole entry, further chain, the tested form may be a part) above
T2 sequence (P12004 whole entry partner, the tested form may be a part): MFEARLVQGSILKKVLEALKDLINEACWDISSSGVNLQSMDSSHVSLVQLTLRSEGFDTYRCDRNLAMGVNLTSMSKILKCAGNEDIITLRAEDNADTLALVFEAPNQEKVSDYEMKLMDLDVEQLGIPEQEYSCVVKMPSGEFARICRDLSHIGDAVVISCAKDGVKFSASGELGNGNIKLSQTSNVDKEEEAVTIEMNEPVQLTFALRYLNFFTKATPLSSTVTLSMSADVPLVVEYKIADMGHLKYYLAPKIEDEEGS

SMILES | ATP hydrolyzed/min (ATAD5-RFC) | cryo-EM structure [1]
Nc1ncnc2c1ncn2[C@@H]1O[C@H](COP(=O)(O)OP(=O)(O)OP(=O)(O)O)[C@@H](O)[C@H]1O [ATP] | ATP hydrolyzed/min by ATAD5-RFC alone or with PCNA and/or DNA | –
Nc1ncnc2c1ncn2[C@@H]1O[C@H](COP(=O)(O)OP(=O)(O)OP(O)(O)=S)[C@@H](O)[C@H]1O [ATPγS] | – | four subunits (ATAD5, RFC2, RFC5 and RFC4, that is, subunits A–D) each bound an ATPγS
